{"source": "ChEMBL document CHEMBL5352452", "about": "“Design, synthesis and pharmacological evaluation of β-carboline derivatives as potential antitumor agent via targeting autophagy” (Eur J Med Chem, 2023)", "key": {"[1]": {"system": "HCT-116", "experiment": "Induction of autophagy in human HCT-116 cells assessed as increase in LC3-II expression at 3 uM measured upto 36 hrs by Western blot analysis", "assay_type": "functional, cell-based"}, "[2]": {"system": "HCT-116", "experiment": "Induction of apoptosis in human HCT-116 cells assessed as late apoptotic cells at 2 uM incubated for 24 hrs by annexin V FITC/propidium iodide staining based flow cytometry (reference value: 4.6%)", "assay_type": "functional"}, "[3]": {"system": "HCT-116", "experiment": "Induction of morphological changes in human HCT-116 cells assessed as appearance of wrinkled cells at 2 to 6 uM measured after 24 hrs by microscopic analysis", "assay_type": "functional, cell-based", "conditions": "dose 2-6 µM"}, "[4]": {"system": "HCT-116", "experiment": "Downregulation of oxidative phosphorylation gene in human HCT-116 cells at 2 uM incubated for 24 hrs by RNA sequencing analysis", "assay_type": "functional, cell-based"}, "[5]": {"system": "HCT-116", "experiment": "Induction of apoptosis in human HCT-116 cells assessed as necrotic cells at 1 uM incubated for 24 hrs by annexin V FITC/propidium iodide staining based flow cytometry (reference value: 7.7%)", "assay_type": "functional"}, "[6]": {"system": "HCT-116", "experiment": "Induction of autophagy in human HCT-116 cells expressing ATG5-FLAG assessed as increase in LC3-II expression upto 4 uM measured after 24 hrs by Western blot analysis", "assay_type": "functional, cell-based"}, "[7]": {"system": "HCT-116", "experiment": "Induction of apoptosis in human HCT-116 cells assessed as increase in caspase 3 expression upto 5 uM incubated for 24 hrs by Western blot analysis", "assay_type": "functional, cell-based"}, "[8]": {"system": "HCT-116", "experiment": "Induction of apoptosis in p53 knockout human HCT-116 cells assessed as increase in caspase 3 expression upto 5 uM incubated for 24 hrs by Western blot analysis", "assay_type": "functional, cell-based"}, "[9]": {"system": "HCT-116", "experiment": "Upregulation of Kras signaling pathway in human HCT-116 cells at 2 uM incubated for 24 hrs by RNA sequencing analysis", "assay_type": "functional, cell-based"}, "[10]": {"system": "HCT-116", "experiment": "Induction of autophagy in human HCT-116 cells assessed as increase in p62 expression upto 5 uM incubated for 24 hrs by Western blot analysis", "assay_type": "functional, cell-based"}, "[11]": {"system": "HCT-116", "experiment": "Induction of autophagy in human HCT-116 cells assessed as increase in p62 expression at 3 uM measured after 48 to 60 hrs by Western blot analysis", "assay_type": "functional, cell-based", "conditions": "time 48-60 hrs"}, "[12]": {"system": "CT26", "experiment": "Antitumor activity against […] CT26 cells xenografted in C57BL/6 mouse assessed as reduction in tumor weight at 45 mg/kg, ip administered once every two days measured after 16 days", "assay_type": "functional", "design": "scale not given: the % may be the effect or the level left", "conditions": "time 16 day"}, "[13]": {"system": "CT26", "experiment": "Antitumor activity against […] CT26 cells xenografted in C57BL/6 mouse assessed as reduction in tumor volume at 45 mg/kg, ip administered once every two days measured after 8 days", "assay_type": "functional, organism-based", "conditions": "time 8.0 day"}, "[14]": {"system": "HCT-116", "experiment": "Induction of apoptosis in human HCT-116 cells assessed as viable cells at 1 uM incubated for 24 hrs by annexin V FITC/propidium iodide staining based flow cytometry (reference value: 83 %)", "assay_type": "functional", "conditions": "read-out: Activity"}, "[15]": {"system": "ECa-109 cell line", "experiment": "Antiproliferative activity against human Eca-109 cells assessed as inhibition of cell growth measured after 48 hrs by MTT assay", "assay_type": "functional, cell-based", "conditions": "ECa-109, 48 h"}, "[16]": {"system": "HCT-116", "experiment": "Downregulation of Myc-v1 in human HCT-116 cells at 2 uM incubated for 24 hrs by RNA sequencing analysis", "assay_type": "functional, cell-based"}, "[17]": {"system": "HCT-116", "experiment": "Induction of apoptosis in human HCT-116 cells assessed as increase in LC3-II expression upto 4 uM incubated for 24 hrs by Western blot analysis", "assay_type": "functional, cell-based"}, "[18]": {"system": "HCT-116", "experiment": "Antiproliferative activity against ATG7 knockout human HCT-116 cells assessed as inhibition of cell growth measured after 24 hrs by CCK-8 assay", "assay_type": "functional, cell-based", "conditions": "HCT-116, 24 h"}, "[19]": {"system": "HCT-116", "experiment": "Induction of autophagy in ATG7 knockout human HCT-116 cells assessed as increase in LC3-II expression upto 4 uM measured after 24 hrs by Western blot analysis", "assay_type": "functional, cell-based"}, "[20]": {"system": "786-0", "experiment": "Antiproliferative activity against human 786-0 cells assessed as inhibition of cell growth measured after 48 hrs by MTT assay", "assay_type": "functional, cell-based", "conditions": "786-0, 48 h"}, "[21]": {"system": "HCT-116", "experiment": "Inhibition of colony formation in human HCT-116 cells at 1 to 4 uM measured after 14 days by crystal violet staining based analysis", "assay_type": "functional, cell-based", "conditions": "dose 1-4 µM, time 14.0 day"}, "[22]": {"system": "HCT-116", "experiment": "Induction of apoptosis in p53 knockout human HCT-116 cells assessed as increase in LC3-II expression upto 4 uM incubated for 24 hrs by Western blot analysis", "assay_type": "functional, cell-based"}, "[23]": {"system": "HCT-116", "experiment": "Induction of autophagy in human HCT-116 cells assessed as increase in p62 expression at 3 uM measured upto 36 hrs by Western blot analysis", "assay_type": "functional, cell-based"}, "[24]": {"system": "HCT-116", "experiment": "Antiproliferative activity against p53 knockout human HCT-116 cells assessed as inhibition of cell growth measured after 24 hrs by CCK-8 assay", "assay_type": "functional, cell-based", "conditions": "HCT-116, 24 h"}, "[25]": {"system": "HCT-116", "experiment": "Inhibition of colony formation in ATG7 knockout human HCT-116 cells upto 4 uM […] by crystal violet staining based analysis", "assay_type": "functional, cell-based"}, "[26]": {"system": "HCT-116", "experiment": "Induction of apoptosis in human HCT-116 cells assessed as early apoptotic cells at 1 uM incubated for 24 hrs in presence of Z-VAD-FMK by annexin V FITC/propidium iodide staining based flow cytometry (reference value: 6.3 %)", "assay_type": "functional"}, "[27]": {"system": "HCT-116", "experiment": "Antiproliferative activity against human HCT-116 cells assessed as inhibition of cell growth measured after 24 hrs by CCK-8 assay", "assay_type": "functional, cell-based", "conditions": "HCT-116, 24 h"}, "[28]": {"system": "HCT-116", "experiment": "Induction of apoptosis in human HCT-116 cells assessed as viable cells at 1 uM incubated for 24 hrs in presence of Z-VAD-FMK by annexin V FITC/propidium iodide staining based flow cytometry (reference value: 86.2 %)", "assay_type": "functional", "conditions": "read-out: Activity"}, "[29]": {"system": "HCT-116", "experiment": "Induction of autophagy in ATG5 knockout human HCT-116 cells assessed as increase in LC3-II expression upto 4 uM measured after 24 hrs by Western blot analysis", "assay_type": "functional, cell-based"}, "[30]": {"system": "HCT-116", "experiment": "Induction of apoptosis in human HCT-116 cells assessed as late apoptotic cells at 1 uM incubated for 24 hrs by annexin V FITC/propidium iodide staining based flow cytometry (reference value: 4.6%)", "assay_type": "functional"}, "[31]": {"system": "BGC-823", "experiment": "Antiproliferative activity against human BGC-823 cells assessed as inhibition of cell growth measured after 48 hrs by MTT assay", "assay_type": "functional, cell-based", "conditions": "BGC-823, 48 h"}, "[32]": {"system": "HCT-116", "experiment": "Antiproliferative activity against human HCT-116 cells expressing ATG7-FLAG assessed as inhibition of cell growth measured after 24 hrs by CCK-8 assay", "assay_type": "functional, cell-based", "conditions": "HCT-116, 24 h"}, "[33]": {"system": "HCT-116", "experiment": "Downregulation of Myc-v2 in human HCT-116 cells at 2 uM incubated for 24 hrs by RNA sequencing analysis", "assay_type": "functional, cell-based"}}, "note": "pIC50: −log10 of the molar value. Calls of active or inactive are those of the source. The rule behind the calls is not given here.", "data": [{"smiles": "CN1CCN(Cc2cc3c4ccccc4n(CCCc4ccccc4)c3c(CN3CCN(C)CC3)n2)CC1", "values": [{"measurement": "Activity", "setting": "[1]", "result": "Active"}, {"measurement": "Activity", "setting": "[2]", "result": 6.8, "unit": "%"}, {"measurement": "Activity", "setting": "[3]", "result": "Active"}, {"measurement": "Activity", "setting": "[4]", "result": "Active"}, {"measurement": "Activity", "setting": "[5]", "result": 6, "unit": "%"}, {"measurement": "Activity", "setting": "[6]", "result": "Active"}, {"measurement": "Activity", "setting": "[7]", "result": "inactive"}, {"measurement": "Activity", "setting": "[8]", "result": "inactive"}, {"measurement": "Activity", "setting": "[9]", "result": "Active"}, {"measurement": "Activity", "setting": "[10]", "result": "Active"}, {"measurement": "Activity", "setting": "[11]", "result": "inactive"}, {"measurement": "Activity", "setting": "[12]", "result": 69.69, "unit": "%"}, {"measurement": "Activity", "setting": "[13]", "result": "Active"}, {"measurement": "viability at 1 µM", "setting": "[14]", "result": 83.3, "unit": "%"}, {"measurement": "pIC50", "setting": "[15]", "result": 5.06}, {"measurement": "Activity", "setting": "[16]", "result": "Active"}, {"measurement": "Activity", "setting": "[17]", "result": "Active"}, {"measurement": "pIC50", "setting": "[18]", "result": 5.10}, {"measurement": "Activity", "setting": "[19]", "result": "inactive"}, {"measurement": "pIC50", "setting": "[20]", "result": 5.57}, {"measurement": "inhibition", "setting": "[21]", "result": "Active"}, {"measurement": "Activity", "setting": "[22]", "result": "Active"}, {"measurement": "Activity", "setting": "[23]", "result": "Active"}, {"measurement": "pIC50", "setting": "[24]", "result": 5.33}, {"measurement": "inhibition", "setting": "[25]", "result": "inactive"}, {"measurement": "Activity", "setting": "[26]", "result": 6.7, "unit": "%"}, {"measurement": "pIC50", "setting": "[27]", "result": 5.30}, {"measurement": "viability at 1 µM", "setting": "[28]", "result": 84.8, "unit": "%"}, {"measurement": "Activity", "setting": "[29]", "result": "inactive"}, {"measurement": "Activity", "setting": "[30]", "result": 5.6, "unit": "%"}, {"measurement": "pIC50", "setting": "[31]", "result": 4.61}, {"measurement": "pIC50", "setting": "[32]", "result": 5.29}, {"measurement": "Activity", "setting": "[33]", "result": "Active"}]}]}
